Reference: patent US8865894B2, “Oxazolidin-2-one compounds and uses thereof” (Novartis AG, priority 2012, dated 2014)
Read-outs that look alike come from different tables or passages of the source.

Columns and labels:
Format in all cases: cell-based
[1] = target: T1, human PI3Kdelta p110 catalytic subunit (Rat-1 pBABEpuro Myr-HA-hp110 delta) (Homo sapiens, UniProt O00329); test: Cellular assay PI3Kdelta (p-Akt(S473) SureFire, Rat-1_PI3Kdelta cells); settings: 1 h compound treatment, read-out: Rat1-PI3Kd/ IC50
T1 construct: Myr (myristoylation signal) (N); HA (N); expressed in transfected cells; host or cells: Rat-1
T1 sequence (O00329 whole entry): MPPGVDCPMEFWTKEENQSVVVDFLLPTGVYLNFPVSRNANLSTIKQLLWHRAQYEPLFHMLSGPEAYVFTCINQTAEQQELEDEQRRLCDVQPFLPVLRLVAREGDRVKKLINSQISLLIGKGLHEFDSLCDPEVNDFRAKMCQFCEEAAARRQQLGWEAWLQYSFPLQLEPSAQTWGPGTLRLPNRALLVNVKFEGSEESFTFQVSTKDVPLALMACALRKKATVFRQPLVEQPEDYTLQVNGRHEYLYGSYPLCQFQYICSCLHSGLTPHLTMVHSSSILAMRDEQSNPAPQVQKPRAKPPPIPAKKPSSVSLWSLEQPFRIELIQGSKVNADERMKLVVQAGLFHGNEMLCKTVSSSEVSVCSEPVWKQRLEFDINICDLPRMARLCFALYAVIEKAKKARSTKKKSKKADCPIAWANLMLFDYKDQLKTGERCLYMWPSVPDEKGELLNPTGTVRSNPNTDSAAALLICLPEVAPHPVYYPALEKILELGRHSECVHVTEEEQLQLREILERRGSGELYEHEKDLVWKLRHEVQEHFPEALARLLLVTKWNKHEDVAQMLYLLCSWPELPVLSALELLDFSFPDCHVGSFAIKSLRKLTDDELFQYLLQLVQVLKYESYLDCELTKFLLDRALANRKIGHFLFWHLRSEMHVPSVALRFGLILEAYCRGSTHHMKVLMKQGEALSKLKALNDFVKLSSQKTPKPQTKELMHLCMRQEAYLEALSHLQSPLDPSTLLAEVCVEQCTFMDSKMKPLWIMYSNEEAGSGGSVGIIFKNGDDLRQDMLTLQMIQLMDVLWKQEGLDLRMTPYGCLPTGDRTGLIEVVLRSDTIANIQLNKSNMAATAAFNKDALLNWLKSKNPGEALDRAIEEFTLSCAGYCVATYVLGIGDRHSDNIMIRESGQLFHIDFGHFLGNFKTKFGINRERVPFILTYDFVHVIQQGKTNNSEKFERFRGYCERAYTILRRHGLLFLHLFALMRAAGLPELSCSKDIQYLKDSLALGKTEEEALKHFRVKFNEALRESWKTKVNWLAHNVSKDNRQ
T1 sequence (Q63787 whole entry partner): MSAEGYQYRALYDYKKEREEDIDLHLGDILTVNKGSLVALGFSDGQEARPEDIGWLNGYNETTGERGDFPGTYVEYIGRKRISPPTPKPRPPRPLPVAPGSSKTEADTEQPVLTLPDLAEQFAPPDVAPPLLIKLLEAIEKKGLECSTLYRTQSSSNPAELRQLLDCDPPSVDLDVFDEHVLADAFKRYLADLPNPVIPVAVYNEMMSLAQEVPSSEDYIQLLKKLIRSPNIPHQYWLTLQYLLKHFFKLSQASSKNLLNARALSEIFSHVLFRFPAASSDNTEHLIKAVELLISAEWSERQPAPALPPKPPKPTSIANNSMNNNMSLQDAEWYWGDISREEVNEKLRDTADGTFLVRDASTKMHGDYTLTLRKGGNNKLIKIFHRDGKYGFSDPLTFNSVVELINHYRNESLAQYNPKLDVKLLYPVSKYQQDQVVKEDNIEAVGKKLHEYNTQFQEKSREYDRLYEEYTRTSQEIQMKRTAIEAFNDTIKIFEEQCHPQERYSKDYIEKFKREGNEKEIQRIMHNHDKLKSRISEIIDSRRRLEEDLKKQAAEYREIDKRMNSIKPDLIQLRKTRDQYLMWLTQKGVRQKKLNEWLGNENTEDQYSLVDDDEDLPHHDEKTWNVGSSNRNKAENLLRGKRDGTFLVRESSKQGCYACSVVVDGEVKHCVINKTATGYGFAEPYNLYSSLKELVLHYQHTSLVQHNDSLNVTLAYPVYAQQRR
Source text: (§1) AlphaScreen (Amplified Luminescent Proximity Homogeneous Assay, ALPHA, Perkin Elmer) is a non-radioactive bead-based proximity assay technology to study biomolecular interactions in a homogenous microtiter plate format. The brand name SureFire denotes AlphaScreen assays that are adapted to quantify the phosphorylation of endogenous cellular proteins in cell lysates, by using matched antibody pairs, which consist of an anti-phospho-kinase and an anti-kinase antibody. The assay allows characterization of kinase signaling in cells as well as measurement of kinase inhibitor effects. The AlphaScreen technology provides several advantages over standard assay techniques such as ELISA, as it avoids time-consuming washing procedures and reduces plate handling. Furthermore, it is miniaturizable at least to a 384-well format and provides sensitivity down to the femtomolar range, dependent on the affinity of the antibodies included in the individual AlphaScreen SureFire assay kit. High sensitivity is reached by an intrinsic amplification mechanism, which involves production of singlet oxygen molecules. SureFire assay kits are commercially available for specific targets and include pairs of validated antibodies (PerkinElmer). This report describes common procedures applied for AlphaScreen SureFire assays and respective semi-automated steps for routine kinase inhibitor profiling in cell-based assays.
(§2) The Rat-1 cell lines stably overexpressing activated PI3K class I isoforms Rat-1 pBABEpuro Myr-HA-hp110 delta (Rat-1_PI3Kdelta) and Rat-1 pBABEpuro Myr-HA-hp110alpha (Rat-1_PI3Kalpha) and Rat-1 pBABEpuro Myr-HA-hp110 beta (Rat-1_PI3beta) were prepared as described (Maira S M, Stauffer F, Brueggen J, Furet P, Schnell C, Fritsch C, Brachmann S, Chène P, de Pover A, Schoemaker K, Fabbro D, Gabriel D, Simonen M, Murphy L, Finan P, Sellers W, García-Echeverría C (2008), Mol Cancer Ther. 7:1851-63 and Maira S M, Pecchi S, Brueggen J, Huh K, Schnell C, Fritsch C, Nagel T, Wiesmann M, Brachmann S, Dorsch M, Chène P, Schoemaker K, De Pover A, Menezes D, Fabbro D, Sellers W, García-Echeverría C, Voliva C F (2011), Mol. Cancer Ther., accepted). All cell lines were cultivated in complete growth medium (DMEM high glucose, 10% (v/v) fetal bovine serum, 1% (v/v) MEM NEAA, 10 mM HEPES, 2 mM L-glutamine, puromycin (10 μg/mL for Rat-1_PI3Kdelta and Rat-1_PI3Kalpha, 4 ug/mL for Rat-1_PI3beta), 1% (v/v) Pen/Strep) to 90% confluency at 37° C./5% CO2/90% humidity in a humidified CO2 incubator and were split twice a week.
(§3) The following materials were used for p-AKT(S473) detection in Rat-1 cell lysates: Dulbecco's modified Eagle's medium (DMEM) high glucose (Gibco Invitrogen, Basel, Switzerland, Cat. No. 41965), Heat Inactivated Fetal Bovine Serum, Qualified (HI FBS; Gibco Invitrogen, Basel, Switzerland, Lot. No. 16140), MEM non essential amino acids (NEAA; Gibco Invitrogen, Basel, Switzerland, Cat. No. 11140), HEPES (Gibco Invitrogen, Basel, Switzerland, Cat. No. 15630), Penicillin/Streptomycin (Pen/Strep, 100×; Gibco Invitrogen, Basel, Switzerland, Cat. No. 15140-122), L-Glutamine (Gibco Invitrogen, Basel, Switzerland, Cat. No. 25030), Puromycin (Sigma Aldrich, Buchs, Switzerland, Cat. No. P9620), DMSO (MERCK, Dietikon, Switzerland, Cat. No. 8.02912.2500), H2O, MilliQ-H2O unless otherwise stated (MILLIPORE QGARDOOR1, Millipore, Zug, Switzerland), Bovine serum albumine (BSA; Sigma Aldrich, Buchs, Switzerland Cat. No. A8412), SureFire p-Akt 1/2 (Ser473) Assay Kit (PerkinElmer, Schwerzenbach, Switzerland, Cat. No. TGRAS50K).
(§4) The p-Akt(S473) SureFire assay measures the phosphorylation of endogenous cellular Akt 1/2 at Ser473 in cell lysates. Using Rat-1 cells stably expressing myr-HA-tagged versions of the human PI3Kdelta, PI3Kalpha, or PI3Kbeta p110 catalytic subunit isoforms, the assay was developed as a two-plate protocol in a 384-well format.

[2] = target: T2, human PI3Kalpha p110 catalytic subunit (Rat-1 pBABEpuro Myr-HA-hp110alpha) (Homo sapiens, UniProt P42336); test: Cellular assay PI3Kalpha (p-Akt(S473) SureFire, Rat-1_PI3Kalpha cells); settings: 1 h compound treatment, read-out: Rat1-PI3Ka/ IC50
T2 construct: Myr (myristoylation signal) (N); HA (N); expressed in transfected cells; host or cells: Rat-1
T2 sequence (P42336 whole entry): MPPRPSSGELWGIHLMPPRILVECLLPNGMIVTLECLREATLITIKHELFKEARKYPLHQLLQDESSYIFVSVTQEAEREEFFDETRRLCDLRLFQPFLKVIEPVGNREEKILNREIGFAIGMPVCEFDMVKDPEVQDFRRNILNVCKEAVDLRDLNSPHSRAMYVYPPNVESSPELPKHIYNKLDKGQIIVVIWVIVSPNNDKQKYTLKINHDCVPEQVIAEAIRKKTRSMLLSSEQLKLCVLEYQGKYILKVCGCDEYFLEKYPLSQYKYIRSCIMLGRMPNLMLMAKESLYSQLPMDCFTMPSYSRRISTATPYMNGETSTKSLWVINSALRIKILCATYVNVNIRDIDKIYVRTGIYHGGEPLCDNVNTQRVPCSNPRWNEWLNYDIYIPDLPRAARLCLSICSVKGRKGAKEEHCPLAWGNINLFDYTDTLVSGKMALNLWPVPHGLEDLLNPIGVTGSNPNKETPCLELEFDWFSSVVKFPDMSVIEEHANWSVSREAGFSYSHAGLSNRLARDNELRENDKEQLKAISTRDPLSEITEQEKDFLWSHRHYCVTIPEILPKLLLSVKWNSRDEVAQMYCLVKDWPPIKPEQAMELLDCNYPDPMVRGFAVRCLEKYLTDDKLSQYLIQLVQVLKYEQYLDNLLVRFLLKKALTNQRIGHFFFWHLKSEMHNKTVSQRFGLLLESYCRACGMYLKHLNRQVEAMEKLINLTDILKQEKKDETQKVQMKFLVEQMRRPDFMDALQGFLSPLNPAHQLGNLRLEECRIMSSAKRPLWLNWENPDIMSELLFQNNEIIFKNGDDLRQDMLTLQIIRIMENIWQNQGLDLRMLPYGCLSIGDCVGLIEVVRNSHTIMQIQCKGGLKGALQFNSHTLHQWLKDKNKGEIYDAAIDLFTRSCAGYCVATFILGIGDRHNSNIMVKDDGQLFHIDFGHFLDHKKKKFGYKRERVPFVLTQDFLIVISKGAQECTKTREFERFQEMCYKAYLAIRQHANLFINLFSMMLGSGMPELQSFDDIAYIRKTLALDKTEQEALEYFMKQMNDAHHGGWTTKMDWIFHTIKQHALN
T2 sequence (Q63787 whole entry partner): as the sequence (Q63787 whole entry partner) above
Source text: as §1, §2, §3, §4

[3] = target: T3, human PI3Kbeta p110 catalytic subunit (Rat-1 pBABEpuro Myr-HA-hp110 beta) (Homo sapiens, UniProt P42338); test: Cellular assay PI3Kbeta (p-Akt(S473) SureFire, Rat-1_PI3beta cells)
T3 construct: Myr (myristoylation signal) (N); HA (N); expressed in transfected cells; host or cells: Rat-1
T3 sequence (P42338 whole entry): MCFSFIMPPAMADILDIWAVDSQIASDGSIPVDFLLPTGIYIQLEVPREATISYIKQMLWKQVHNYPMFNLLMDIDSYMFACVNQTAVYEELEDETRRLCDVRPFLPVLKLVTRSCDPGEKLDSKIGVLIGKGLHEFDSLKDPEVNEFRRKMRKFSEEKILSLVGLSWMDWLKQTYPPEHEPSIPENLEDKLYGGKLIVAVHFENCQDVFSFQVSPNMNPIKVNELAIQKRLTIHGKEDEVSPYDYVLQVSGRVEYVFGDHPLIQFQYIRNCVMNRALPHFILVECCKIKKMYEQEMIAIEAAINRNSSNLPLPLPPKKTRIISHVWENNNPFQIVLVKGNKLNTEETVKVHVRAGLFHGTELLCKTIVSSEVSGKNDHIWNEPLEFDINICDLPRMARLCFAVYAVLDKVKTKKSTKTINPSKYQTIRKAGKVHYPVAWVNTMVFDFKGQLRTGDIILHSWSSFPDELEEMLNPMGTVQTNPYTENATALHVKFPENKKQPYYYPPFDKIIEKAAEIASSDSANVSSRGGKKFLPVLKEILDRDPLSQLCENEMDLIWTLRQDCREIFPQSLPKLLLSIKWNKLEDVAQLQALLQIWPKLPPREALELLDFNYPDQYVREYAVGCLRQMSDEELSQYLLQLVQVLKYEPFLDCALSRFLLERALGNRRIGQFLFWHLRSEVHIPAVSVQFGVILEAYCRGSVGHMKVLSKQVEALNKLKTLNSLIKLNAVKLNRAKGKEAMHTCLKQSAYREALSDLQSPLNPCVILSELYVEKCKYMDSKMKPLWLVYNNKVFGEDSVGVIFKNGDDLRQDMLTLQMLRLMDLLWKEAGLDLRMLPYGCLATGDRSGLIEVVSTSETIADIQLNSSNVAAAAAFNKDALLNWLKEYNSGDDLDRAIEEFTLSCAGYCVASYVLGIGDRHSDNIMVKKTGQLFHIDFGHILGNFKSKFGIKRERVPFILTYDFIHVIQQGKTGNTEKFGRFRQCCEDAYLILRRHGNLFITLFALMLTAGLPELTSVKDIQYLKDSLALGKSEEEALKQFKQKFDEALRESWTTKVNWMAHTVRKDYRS
T3 sequence (Q63787 whole entry partner): as the sequence (Q63787 whole entry partner) above
Source text: as §1, §2, §3, §4

[4] = p-Akt(S473), 1 h compound treatment, read-out: Rat1-PI3Kb/ IC50

SMILES	IC50 [1] [nM]	IC50 [2] [nM]	IC50 [3, 4] [nM]	IC50 ([3]; fourth measurement, outlier, read-out: Rat1-PI3Kb IC50, fourth measurement (footnote)) [nM]
CC1(CO)COC(=O)N1c1cc(-c2cnc(N)nc2C(F)(F)F)nc(N2CCOCC2)n1 (racemic) [Example 3, 3-(2′-amino-2-morpholino-4′-(trifluoromethyl)-4,5′-bipyrimidin-6-yl)-4-(hydroxymethyl)-4-methyloxazolidin-2-one]	73	147	193	–
Nc1ncc(-c2cc(N3C(=O)OC4C(O)CCC43)nc(N3CCOCC3)n2)c(C(F)(F)F)n1 (single isomer, unassigned) [Example 22A]	27	86	60	–
Nc1ncc(-c2cc(N3C(=O)OC4C(O)CCC43)nc(N3CCOCC3)n2)c(C(F)(F)F)n1 (single isomer, unassigned) [Example 22B]	5	148	125	–
C[C@H](O)CC1OC(=O)N(c2cc(-c3cnc(N)nc3C(F)(F)F)nc(N3CCOCC3)n2)[C@H]1C (single isomer, unassigned) [Example 25]	13	45	43	–
COC[C@H]1COC(=O)N1c1cc(-c2cnc(N)nc2C(F)(F)F)nc(N2CCOCC2)n1 [Example 5, (S)-3-(2′-Amino-2-morpholin-4-yl-4′-trifluoromethyl-[4,5′]bipyrimidinyl-6-yl)-4-methoxymethyl-oxazolidin-2-one]	23	93	314	–
C[C@@H]1OC(=O)N(c2cc(-c3cnc(N)nc3C(F)(F)F)nc(N3CCOCC3)n2)[C@H]1CO [Example 6]	37	94	147	–
[2H]C1([2H])OC([2H])([2H])C([2H])([2H])N(c2nc(-c3cnc(N)nc3C(F)(F)F)cc(N3C(=O)O[C@H](C)[C@@H]3CO)n2)C1([2H])[2H] [Example 8]	54	81	108	–
C[C@H]1OC(=O)N(c2cc(-c3cnc(N)nc3C(F)(F)F)nc(N3CCOC[C@@H]3C)n2)[C@H]1CO [Example 10, (4S,5R)-3-[2′-Amino-2-((S)-3-methyl-morpholin-4-yl)-4′-trifluoromethyl-[4,5′]bipyrimidinyl-6-yl]-4-hydroxymethyl-5-methyl-oxazolidin-2-one]	52	61	173	–
C[C@H]1OC(=O)N(c2cc(-c3cnc(N)nc3C(F)(F)F)nc(N3CCOCC3)n2)[C@H]1COC=O [Example 12, Formic acid (4S,5R)-3-(2′-amino-2-morpholin-4-yl-4′-trifluoromethyl-[4,5′]bipyrimidinyl-6-yl)-5-methyl-2-oxo-oxazolidin-4-ylmethyl ester]	92	113	123	–
C[C@H]1COCCN1c1nc(-c2cnc(N)nc2C(F)(F)F)cc(N2C(=O)OC[C@@H]2C)n1 [Example 13, (S)-3-[2′-Amino-2-((S)-3-methyl-morpholin-4-yl)-4′-trifluoromethyl-[4,5′]bipyrimidinyl-6-yl]-4-methyl-oxazolidin-2-one]	42	58	240	–

Further compounds by falling IC50 [1], results first:

IC50 [1] [nM]	IC50 [2] [nM]	IC50 [3, 4] [nM]	IC50 ([3]; fourth measurement, outlier, read-out: Rat1-PI3Kb IC50, fourth measurement (footnote)) [nM]	SMILES
138	256	184	–	Nc1ncc(-c2cc(N3CCOC3=O)nc(N3CCOCC3)n2)c(C(F)(F)F)n1 [Example 11, 3-(2′-Amino-2-morpholin-4-yl-4′-trifluoromethyl-[4,5′]bipyrimidinyl-6-yl)-oxazolidin-2-one, reference compound]
101	277	157	–	Nc1ncc(-c2cc(N3C[C@@H](CO)OC3=O)nc(N3CCOCC3)n2)c(C(F)(F)F)n1 [Example 14, (S)-3-(2′-Amino-2-morpholin-4-yl-4′-trifluoromethyl-[4,5′]bipyrimidinyl-6-yl)-5-hydroxymethyl-oxazolidin-2-one]
81	134	278	–	CC1(C)OC(=O)N(c2cc(-c3cnc(N)nc3C(F)(F)F)nc(N3CCOCC3)n2)[C@H]1CO [Example 2, (S)-3-(2′-Amino-2-morpholin-4-yl-4′-trifluoromethyl-[4,5′]bipyrimidinyl-6-yl)-4-hydroxymethyl-5,5-dimethyl-oxazolidin-2-one]
78	147	226	–	Nc1ncc(-c2cc(N3C(=O)OC[C@@H]3CCO)nc(N3CCOCC3)n2)c(C(F)(F)F)n1 [Example 9, (S)-3-(2′-Amino-2-morpholin-4-yl-4′-trifluoromethyl-[4,5′]bipyrimidinyl-6-yl)-4-(2-hydroxy-ethyl)-oxazolidin-2-one]
53	79	114	–	C[C@H]1[C@H](CO)OC(=O)N1c1cc(-c2cnc(N)nc2C(F)(F)F)nc(N2CCOCC2)n1 [Example 15, (4S,5R)-3-(2′-Amino-2-morpholin-4-yl-4′-trifluoromethyl-[4,5′]bipyrimidinyl-6-yl)-5-hydroxymethyl-4-methyl-oxazolidin-2-one]
27	95	77	–	Nc1ncc(-c2cc(N3C(=O)O[C@@H]4[C@@H](O)CC[C@@H]43)nc(N3CCOCC3)n2)c(C(F)(F)F)n1 (racemic) [Example 22, (3aR*,6R*,6aR*)-3-(2′-Amino-2-morpholino-4′-(trifluoromethyl)-[4,5′-bipyrimidin]-6-yl)-6-hydroxyhexahydro-2H-cyclopenta[d]oxazol-2-one]
27	48	65	3900	C[C@H]1COC(=O)N1c1cc(-c2cnc(N)nc2C(F)(F)F)nc(N2CCOCC2)n1 [Example 1, (S)-3-(2′-Amino-2-morpholin-4-yl-4′-trifluoromethyl-[4,5′]bipyrimidinyl-6-yl)-4-methyl-oxazolidin-2-one]
13	31	183	–	Nc1ncc(-c2cc(N3C(=O)O[C@H]4CCCC[C@@H]43)nc(N3CCOCC3)n2)c(C(F)(F)F)n1 [Example 4, (3aS,7aS)-3-(2′-Amino-2-morpholin-4-yl-4′-trifluoromethyl-[4,5′]bipyrimidinyl-6-yl)-hexahydro-benzooxazol-2-one]
11	58	75	–	C[C@H]1C(CC(C)(C)O)OC(=O)N1c1cc(-c2cnc(N)nc2C(F)(F)F)nc(N2CCOCC2)n1 (mixture of isomers) [Example 26, (4S,5R)- and (4S,5S)-3-(2′-amino-2-morpholino-4′-(trifluoromethyl)-[4,5′-bipyrimidin]-6-yl)-5-(2-hydroxy-2-methylpropyl)-4-methyloxazolidin-2-one]
7	45	34	–	C[C@@H](O)C[C@H]1OC(=O)N(c2cc(-c3cnc(N)nc3C(F)(F)F)nc(N3CCOCC3)n2)[C@H]1C (single isomer, unassigned) [Example 24]
